Measurements taken from ChEMBL document CHEMBL1157994, “Three new metabolites from marine-derived fungi of the genera coniothyrium and microsphaeropsis” (J Nat Prod, 1999).
Active and inactive are the calls of the source. The calls are words filed in the database; no cut-off is given here.

Experiments:
Format in all cases: functional, organism-based
[1] = system: Aspergillus pseudoglaucus; assay: Antifungal activity against Eurotium repens at 50 ug by agar diffusion test
Priestia megaterium = assay: […] activity against Bacillus megaterium at 50 ug by agar diffusion test
Microbotryum violaceum = assay: Antifungal activity against Ustilago violacea at 50 ug by agar diffusion test
Mycotypha microspora = assay: Antifungal activity against Mycotypha microspora at 50 ug by agar diffusion test

Structure (SMILES) | Activity [1] | Activity (Priestia megaterium) | Activity (Microbotryum violaceum) | Activity (Mycotypha microspora)
COc1cc(O)c2c(c1)C[C@@H](C)OC2=O | Active |  |  | 
OCc1ccco1 |  | Active |  | 
C[C@H]1OC(=O)c2c(O)cccc2[C@H]1O | Active |  | Active | 
O=C1CCC(O)c2cccc(O)c21 (stereo not drawn) | Active |  | Active | 
CO[C@]12C=C3C=CC(=O)[C@@H](C)[C@@]3(C)C[C@@]1(O)[C@H](C)CO2 | Active |  | Active | 
COc1cc2c(c(O)c1Cl)C(=O)O[C@H](C)C2 | Active |  |  | 
C[C@H]1OC(=O)c2c(O)cccc2[C@@H]1O |  |  | Active | 
C[C@@H]1Cc2cccc(O)c2C(=O)O1 | Active |  |  | 
CC(=O)[C@@H](C)c1cc(O)cc(O)c1 |  |  | Active | Active
